The text below walks through data of the NIST ThermoML archive (doi:10.1016/j.jct.2005.10.018).

Structures are written as SMILES. ± gives the expanded uncertainty stated by the source.

The conditions of the data set: 298.15 K; 101.33 kPa; Liquid; Vibrating tube method.
As a reminder, the mass density is the mass of a sample divided by its volume. As for `C=C1CC[C@H]2C[C@@H]1C2(C)C` [(1S,5S)-6,6-dimethyl-2-methylenebicyclo[3.1.1]heptane], the mass density amounted to 866.84 ± 0.3 kg/m3.

Take `C=C(C)[C@H]1CC=C(C)CC1` [(R)-1-methyl-4-(1-methylethenyl)cyclohexene]: the mass density was found to be 837.31 ± 0.85 kg/m3.

As for `CC1=CC[C@H]2C[C@@H]1C2(C)C` [(S)-2-pinene], the mass density amounted to 853.88 ± 0.3 kg/m3.

Regarding `CCO` [ethanol], the mass density is 785.24 ± 0.16 kg/m3.
